Experimental data as given in US20110312897A1, “CATHEPSIN L PROTEOLYTICALLY PROCESSES HISTONE H3 DURING MOUSE EMBRYONIC STEM CELL DIFFERENTIATION” (THE ROCKEFELLER UNIVERSITY, priority 2008, published 2011).
Where a SMILES comes first, the peptide text is derived from it. Where no end group is shown, it is not given here. The star is where a group is joined. Cbz = O=C(OCc1ccccc1)*; CH2F = FC*

What was measured:
Cathepsin B = molecular target: T1, Cathepsin B (Mus musculus, UniProt P10605); experiment: Chemical inhibition in RA-differentiating ESCs, Cathepsin B immunoblot; format: cell-based; conditions: 10 uM in cell media, RA differentiation, vs control cells
T1 construct: endogenous in cells; host or cells: mouse ES cells (LF2 line), RA-differentiated
T1 sequence (P10605 80-333): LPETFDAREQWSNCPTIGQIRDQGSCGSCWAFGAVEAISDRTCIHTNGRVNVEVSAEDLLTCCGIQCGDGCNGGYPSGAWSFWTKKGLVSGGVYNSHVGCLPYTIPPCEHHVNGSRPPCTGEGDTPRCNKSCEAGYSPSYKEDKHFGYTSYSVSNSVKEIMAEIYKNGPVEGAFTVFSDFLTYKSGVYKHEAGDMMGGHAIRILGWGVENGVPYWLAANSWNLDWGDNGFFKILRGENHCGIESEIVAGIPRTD
Experimental: ES cells (LF2 line) were cultured as previously described (Bernstein et al., “Mouse Polycomb Proteins Bind Differentially to Methylated Histone H3 and RNA and are Enriched in Facultative Heterochromatin,” Mol Cell Biol 26:2560-2569 (2006), which is hereby incorporated by reference in its entirety). Cells were grown on gelatin-coated plates without feeder cells and maintained in an undifferentiated state through culture in KODMEM (Invitrogen 1082-9018)), 2 mM L-glutamine (Sigma G7513), 15% ES grade fetal bovine serum (Gibco 10439-024), 10^−4 mM 2-mercaptoethanol, and leukemia inhibitory factor (LIF). To differentiate, cells were plated sparsely at ˜1*10^4 cells/cm^2, allowed to adhere overnight and then fed with differentiation media containing DMEM, 10% FBS, 10^−4 mM 2-mercaptoethanol and, for retinoic acid (RA) differentiation, 100 nM all-trans-RA (Sigma R2625). […]
(§1) To further assess whether Cathepsin L causes histone H3 cleavage in vivo, a commercially available, cell-permeable Cathepsin L specific inhibitor, Cathepsin L Inhibitor I, was used Inhibition of Cathepsin L using a chemical inhibitor allowed the effect of Cathepsin L inhibition to be assessed within a single, wild-type cell line rather than comparing individual cell lines created by drug selection. […]

differentiating ESCs = experiment: Pluripotency and lineage marker expression in differentiating ESCs (immunoblot, Q-PCR); format: cell-based, mouse; conditions: for Nanog expression: inhibitor vs control cells
Excerpt: FIGS. 15A-15C show the effect of in vivo chemical inhibition of Cathepsin L on the transcriptional profile of differentiating ESCs. Cells were differentiated with RA in the presence of either Cathepsin L I inhibitor or DMSO alone, as in FIG. 6B. mRNA was isolated from those cells at the time points indicated, reverse transcribed into cDNA, and assayed for the expression of specific genes by Q-PCR with SYBR green. The data shown in FIGS. 15A-15C represent the average of two independent experiments.
(§2) ES cells (LF2 line) were cultured as previously described (Bernstein et al., “Mouse Polycomb Proteins Bind Differentially to Methylated Histone H3 and RNA and are Enriched in Facultative Heterochromatin,” Mol Cell Biol 26:2560-2569 (2006), which is hereby incorporated by reference in its entirety). Cells were grown on gelatin-coated plates without feeder cells and maintained in an undifferentiated state through culture in KODMEM (Invitrogen 1082-9018)), 2 mM L-glutamine (Sigma G7513), 15% ES grade fetal bovine serum (Gibco 10439-024), 10^−4 mM 2-mercaptoethanol, and leukemia inhibitory factor (LIF). To differentiate, cells were plated sparsely at ˜1*10^4 cells/cm^2, allowed to adhere overnight and then fed with differentiation media containing DMEM, 10% FBS, 10^−4 mM 2-mercaptoethanol and, for retinoic acid (RA) differentiation, 100 nM all-trans-RA (Sigma R2625). Embryoid body formation was accomplished by splitting partially trypsinized cells onto non-treated petri dishes and allowing cells to cluster. Chemical inhibition of Cathepsin L was accomplished by adding 10 uM [final] Cathepsin L I inhibitor (Calbiochem, Cat. No. 219402) to the cell media.
RNA was isolated from undifferentiated and +RA differentiating ESCs using Trizol reagent as directed by the manufacturer (Invitrogen Cat. No. 15596-018). RNA was transcribed into cDNA using the First Strand Superscript kit (Invitrogen Cat. No. 18080-051) and analyzed by quantitative PCR using SYBRgreen reagent (Applied Biosystems Cat. No. 4309155).
Importantly, neither Oct-3/4 nor Cathepsin B levels (FIG. 6C, panels d and e) appeared to change upon addition of the inhibitor.

Cathepsin L [1] = molecular target: T2, Cathepsin L (Mus musculus, UniProt P06797); experiment: Chemical inhibition of Cathepsin L in RA-differentiating ESCs (immunoblot); format: cell-based; conditions: 10 uM in cell media, RA differentiation
T2 construct: endogenous in cells; host or cells: mouse ES cells (LF2 line), RA-differentiated
T2 sequence (P06797 114-334): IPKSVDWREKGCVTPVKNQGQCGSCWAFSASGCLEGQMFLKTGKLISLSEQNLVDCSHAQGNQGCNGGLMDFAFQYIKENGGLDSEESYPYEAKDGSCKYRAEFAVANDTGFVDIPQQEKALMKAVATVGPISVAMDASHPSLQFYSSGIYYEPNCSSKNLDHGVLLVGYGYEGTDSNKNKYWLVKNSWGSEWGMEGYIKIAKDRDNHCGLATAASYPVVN
Experimental: as §2
Whole cell extracts were prepared by resuspending fresh or flash frozen cell pellets in SDS-Laemmli sample buffer and boiling immediately. […]
as §1

cathepsin L [2] = molecular target: cathepsin L (Homo sapiens, UniProt P07711); conditions: cited from earlier work
Sequence of cathepsin L (P07711 114-333, species assumed): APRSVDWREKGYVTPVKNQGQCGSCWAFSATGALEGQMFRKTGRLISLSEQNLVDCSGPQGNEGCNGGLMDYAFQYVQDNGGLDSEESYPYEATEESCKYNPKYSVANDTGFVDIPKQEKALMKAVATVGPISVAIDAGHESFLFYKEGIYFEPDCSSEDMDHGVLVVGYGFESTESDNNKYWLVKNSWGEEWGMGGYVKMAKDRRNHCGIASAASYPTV

cathepsin D = cathepsin D (Homo sapiens, UniProt P07339); conditions: cited from earlier work
Sequence of cathepsin D (P07339 65-412): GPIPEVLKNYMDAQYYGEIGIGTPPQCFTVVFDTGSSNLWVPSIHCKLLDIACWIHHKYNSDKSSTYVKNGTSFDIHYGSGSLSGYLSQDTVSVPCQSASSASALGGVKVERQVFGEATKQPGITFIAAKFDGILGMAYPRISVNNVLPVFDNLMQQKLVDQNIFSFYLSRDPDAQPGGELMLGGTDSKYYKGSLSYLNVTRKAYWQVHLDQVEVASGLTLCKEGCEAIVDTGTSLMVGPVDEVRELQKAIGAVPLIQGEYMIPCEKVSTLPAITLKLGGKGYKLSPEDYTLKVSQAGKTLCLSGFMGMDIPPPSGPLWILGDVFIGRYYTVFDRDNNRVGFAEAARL

[3] = molecular target: T3, H3 protease activity in fraction #23 (Mus musculus, UniProt P06797); experiment: In vitro H3 cleavage assay of hydroxyapatite fraction #23 +/- protease inhibitors; format: biochemical
T3 construct: a double chain mature form at ˜25 kD and ˜5 kD; endogenous in cells; host or cells: chromatin of 3 days +RA differentiating mouse ESCs (LF2), hydroxyapatite fraction #23
T3 sequence (P06797 114-288 limits assumed): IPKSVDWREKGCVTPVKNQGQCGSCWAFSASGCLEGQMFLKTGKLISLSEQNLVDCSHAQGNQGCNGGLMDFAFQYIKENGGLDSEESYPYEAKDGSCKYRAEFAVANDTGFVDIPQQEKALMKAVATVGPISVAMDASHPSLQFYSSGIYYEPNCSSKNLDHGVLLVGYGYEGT
T3 sequence (P06797 291-334 limits assumed): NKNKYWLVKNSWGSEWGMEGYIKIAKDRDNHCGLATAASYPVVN
Experimental: (§3) Extracts were incubated in buffer (10 mM HEPES, 10 mM KCl, 1.5 mM MgCl2, 0.34M sucrose, 10% glycerol, 5 mM β-mercaptoethanol, all final) with 0.1 μg/μl rH3-HIS (purified from E. coli) and incubated at 37° C. for 1-3 hours. Reactions were stopped by addition of 5×SDS sample buffer and boiling; results were analyzed by immunoblotting with HIS-HRP and/or H3.cs1 antibody. For MS analysis, reactions were quenched by addition of 0.1% (final) TFA. rCathepsin L (R&D Systems, # 1515-CY-010), rCathepsin B (R&D Systems Cat No. BAF965), and rCathepsin K (Calbiochem Cat. No. 342001) were purchased from commercial sources and tested in the assay with rH3-HIS.
Three days+RA differentiating ESC chromatin pellets were solubilized by sonication in buffer A (80 mM NaPO^−4, 200 mM NaCl), injected onto a 2 or 5 mL hydroxyapatite column (BioRad), and fractionated with a 200 mM to 2M NaCl gradient. Each fraction was then assayed as described above. […] Digest was then acidified with glacial acetic acid and aliquots of samples were analyzed using an LTQ-FT as described above. Data was searched against a mouse database using SEQUEST (Eng et al., Journal of the American Society of Mass Spectrometry 5:976-989 (1994), which is hereby incorporated by reference in its entirety). All spectra of interest were manually validated.
To validate further the identification of Cathepsin L as a histone H3 protease, the enriched fractions were tested with different classes of protease inhibitors in the H3 cleavage assay.

[4] = molecular target: T4, Recombinant mouse Cathepsin L (Mus musculus, UniProt P06797); experiment: Inhibition of recombinant mouse Cathepsin L cleavage of rH3-HIS by E64 (immunoblot, FIG. 13); format: biochemical; conditions: pH 7.5 and pH 5.5; E64 10 μM, 50 μM, and 500 μM
T4 construct: purchased R&D Systems 1515-CY-010
T4 sequence (P06797 114-334): as the sequence (P06797 114-334) above
Experimental: Recombinant mouse Cathepsin L was incubated with C-terminally HIS-tagged recombinant histone H3 at both pH 7.5 (left) and pH 5.5 (right) in either buffer alone (−) or in the presence of the cysteine protease inhibitor E64 (+); the final concentration of E64 was 10 μM, 50 μM, and 500 μM.
as §3

[5] = molecular target: T5, chromodomain of mouse CBX7 (Mus musculus, UniProt Q8VDS3); experiment: Peptide pull-down assay; format: binding; conditions: cleaved vs non-cleaved H3 tail peptide
T5 construct: the chromodomain of mouse CBX7; made in house
T5 sequence (Q8VDS3 11-69 limits assumed): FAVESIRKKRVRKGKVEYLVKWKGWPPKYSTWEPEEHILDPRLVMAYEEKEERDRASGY
Experimental: Peptide pull-down assays were performed as described Wysocka, J. “Identifying Novel Proteins Recognizing Histone Modifications Using Peptide Pull-down Assay,” Methods 40:339-343 (2006), which is hereby incorporated by reference in its entirety, using biotinylated peptides conjugated to streptavidin agarose beads (Pierce Cat. No. 20349). Elutions were loaded onto 10 or 15% SDS-PAGE gels and silver stained.
What effect the cleavage of the H3 tail, a proteolytic modification rather than a covalent modification, might have on the binding of effector proteins was examined. Given that K27 methylation is a well-documented binding site for the chromodomain-containing protein Polycomb (Bernstein et al., “Mouse Polycomb Proteins Bind Differentially to Methylated Histone H3 and RNA and are Enriched in Facultative Heterochromatin,” Mol Cell Biol 26:2560-2569 (2006) and Fischle et al., “Molecular Basis for the Discrimination of Repressive Methyl-lysine Marks in Histone H3 by Polycomb and HP1 Chromodomains,” Genes Dev 17:1870-1881 (2003), which are hereby incorporated by reference in their entirety), the effect of H3 cleavage on Pc binding to H3K27 methylation was tested. […]

Cbx7-CD protein = molecular target: T6, Cbx7-CD protein (Mus musculus, UniProt Q8VDS3); experiment: Fluorescence anisotropy of Cbx7-CD binding to H3 peptides; conditions: p<0.01
T6 construct: the chromodomain of mouse CBX7; made in house
T6 sequence (Q8VDS3 11-69 limits assumed): T5 sequence (Q8VDS3 11-69 limits assumed)
Experimental: FIG. 7A is an immunoblot showing cleavage of the modified recombinant histone 3 substrates following incubation with rCathepsin L. The four rH3 substrates used in the cleavage assay include: 1=rH3 unmodified, 2=rH3 alkylated to K27me2, 3=rH3 pan-acetylated with acetic anhydride, 4=rH3+K27me2 pan-acetylated with acetic anhydride. FIG. 7B is a graph showing the amount of recombinant H3 cleavage product formed following incubation with Cathepsin L. H3 cleavage reactions were performed as in FIG. 7A using synthesized H3 peptides representing amino acids 15 to 31. Reactions were incubated with ˜250 pmol peptide and quenched with 0.1% TFA before being plated in duplicate for ELISA with the H3cs.1 antibody. Signal was normalized to that of mock reactions for each peptide. Results represent three independent experiments. […] Binding decreases 3-fold with cleaved peptide. p<0.01. Kds are in μM±SEM. Data points represent the mean±SD
What effect the cleavage of the H3 tail, a proteolytic modification rather than a covalent modification, might have on the binding of effector proteins was examined. […]

[6] = Q-PCR, after 3 days of differentiation, vs control cells

For `O=C(NC(Cc1ccccc1)C(=O)NC(Cc1ccccc1)C(=O)CF)OCc1ccccc1` (stereo not drawn) [Cathepsin L Inhibitor I] (Cbz-Phe-Phe-CH2F; configuration not given here), the “Cathepsin B levels” value (Cathepsin B) was “consistency of Cathepsin B levels”, the Nestin expression (differentiating ESCs; [6]) was “trend toward maintaining higher expression” and the Pax3 expression (differentiating ESCs; [6]) was “trend toward maintaining higher expression”. The Nanog expression (differentiating ESCs; Q-PCR) was “remains unaffected”, the Nanog expression (differentiating ESCs; Q-PCR, listed as Cathepsin L I inhibitor) was “does not differ significantly” and the Gata6 expression (differentiating ESCs; Q-PCR, vs control) was “decreased expression”. The Sox17 expression (differentiating ESCs; Q-PCR, vs control) was “decreased expression”, the HoxA1 expression (differentiating ESCs; Q-PCR, vs control cells) was “did not show any significant trend” and the Musashi expression (differentiating ESCs; Q-PCR, vs control cells) was “did not show any significant trend”. The “Oct-3/4 loss pattern (pluripotency marker)” value (differentiating ESCs; immunoblot, RA differentiation) was “unchanged”, the “all cleavage detected by the H3-general antibody” value (Cathepsin L [1]) was “abolished” and the “histone H3 cleavage (H3-general and H3.cs1 antibodies)” value (Cathepsin L [1]; vs DMSO) was “decreased significantly”. The “processing of Cathepsin L from intermediate form into mature form” value (Cathepsin L [1]; vs DMSO) was “significant failure to fully process Cathepsin L”.

For `NC(N)=O` [Urea], the “enhancement of cathepsin L activity, factor” value (cathepsin L [2]) is listed as 2.5 and the “enhancement of cathepsin D activity, factor” value (cathepsin D) is listed as 6.

In the case of `CC(C)C[C@H](NC(=O)[C@H]1O[C@@H]1C(=O)O)C(=O)NCCCCN=C(N)N` (relative stereo) [E64, L-trans-Epoxysuccinyl-leucylamido(4-guanidino)butane], the H3 cleavage activity ([3]; E64 10 μM, lowest concentration tested) was “all cleavage was abolished”, the “inhibition of H3 protease activity in fraction #23” value ([3]; FIG. 4A) was “potent inhibitor of the H3 protease activity” and the “inhibition of recombinant mouse Cathepsin L (rH3-HIS cleavage)” value [4] was “inhibition of recombinant mouse Cathepsin L”.

For “cleaved peptide: peptide mimicking the cleaved H3 tail, amino acid residues 22-37, K27 methylated (TKAARK(Me)SAPATGGVKK; not fully specified)”, the “CBX7 binding to methylated H3K27” value [5] was “greatly diminished” and the “decrease in Cbx7-CD binding vs non-cleaved peptide (amino acid residues 18-37)” value (Cbx7-CD protein) was 3 fold.
